# Values quoted from earlier work as cited in patent US8884020B2, “Indole compounds” (Ironwood Pharmaceuticals, Inc., priority 2006, dated 2014).
# Test system: prostaglandin synthesis
# Details: Shen et al. 1977
smiles,measurement,value
"Cc1c(CC(=O)O)c2cc(O)ccc2n1C(=O)c1ccc(Cl)cc1 [desmethyl metabolite, (1-(4-chlorobenzoyl)-5-hydroxy-2-methyl-1H-indol-3-yl]acetic acid]",ability to inhibit prostaglandin synthesis,some ability to inhibit prostaglandin synthesis
